In series [1] the target is Epidermal growth factor receptor (Homo sapiens, UniProt P00533). The series is described as follows: Inhibition of wild type EGFR phosphorylation in human LoVo cells preincubated for 2 hrs followed by EGF stimulation measured after 30 mins by ELISA. Type of series: cell-based.
Series [2] addresses Epidermal growth factor receptor (Homo sapiens, UniProt P00533, EX19DEL). Kind of series: Inhibition of EGFR Del ex19 mutant phosphorylation in human PC9 cells preincubated for 2 hrs by ELISA. Type of series: cell-based, PC-9.
For series [3], the target named is Epidermal growth factor receptor (Homo sapiens, UniProt P00533, L858R/T790M). Kind of series: Inhibition of EGFR T790M/L858R double mutant phosphorylation in human H1975 cells preincubated for 2 hrs by ELISA. Type of series: cell-based.
Epidermal growth factor receptor (Homo sapiens, UniProt P00533, L858R/T790M), sequence (P00533 25-1210 T790M/L858R limits assumed): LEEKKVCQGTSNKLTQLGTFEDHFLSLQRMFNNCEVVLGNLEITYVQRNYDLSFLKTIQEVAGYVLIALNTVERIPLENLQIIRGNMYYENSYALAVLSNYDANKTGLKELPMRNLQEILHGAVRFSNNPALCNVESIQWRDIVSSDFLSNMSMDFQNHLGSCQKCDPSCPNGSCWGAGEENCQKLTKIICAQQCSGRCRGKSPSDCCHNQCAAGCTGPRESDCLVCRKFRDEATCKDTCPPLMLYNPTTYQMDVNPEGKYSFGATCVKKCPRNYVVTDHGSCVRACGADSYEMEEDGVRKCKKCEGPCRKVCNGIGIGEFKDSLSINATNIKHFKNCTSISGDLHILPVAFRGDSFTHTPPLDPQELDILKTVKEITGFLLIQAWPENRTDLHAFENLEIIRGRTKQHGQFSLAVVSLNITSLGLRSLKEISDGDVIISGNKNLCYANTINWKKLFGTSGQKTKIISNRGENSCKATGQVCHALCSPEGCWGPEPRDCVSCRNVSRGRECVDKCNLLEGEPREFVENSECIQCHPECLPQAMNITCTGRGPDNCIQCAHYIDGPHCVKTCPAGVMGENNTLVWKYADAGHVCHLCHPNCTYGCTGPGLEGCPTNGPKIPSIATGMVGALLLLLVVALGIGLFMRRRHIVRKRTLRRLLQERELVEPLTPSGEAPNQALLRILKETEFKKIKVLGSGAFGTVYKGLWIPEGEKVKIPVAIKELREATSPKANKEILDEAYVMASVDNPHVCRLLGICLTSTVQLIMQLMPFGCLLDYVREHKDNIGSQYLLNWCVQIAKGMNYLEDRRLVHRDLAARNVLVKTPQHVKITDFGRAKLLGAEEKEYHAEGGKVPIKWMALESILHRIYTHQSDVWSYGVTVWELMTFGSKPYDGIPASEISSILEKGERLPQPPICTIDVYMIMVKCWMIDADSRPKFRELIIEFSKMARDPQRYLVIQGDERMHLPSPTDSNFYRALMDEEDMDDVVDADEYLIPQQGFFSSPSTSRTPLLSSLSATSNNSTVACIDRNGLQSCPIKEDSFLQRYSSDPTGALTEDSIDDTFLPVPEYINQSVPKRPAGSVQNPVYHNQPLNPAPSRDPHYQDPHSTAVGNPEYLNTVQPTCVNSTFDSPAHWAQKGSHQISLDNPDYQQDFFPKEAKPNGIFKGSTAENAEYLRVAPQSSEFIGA
Series [4] is described as follows: Half life in mouse at 25 mg/kg, po. Type of series: ADME, organism-based. Particulars: in vivo.
The nature of series [5]: Apparent half life in patient with EGFR TKI-resistant NSCLC at 20 to 240 mg, po qd. Type of series: ADME, organism-based. Particulars: human, in vivo, read-out: t1/2(app) (converted).
Series [6] is described as follows: Clearance in patient with EGFR TKI-resistant NSCLC at 20 to 240 mg, po qd. The note with it: human, in vivo. Type of series: ADME, organism-based.
The subject of series [7] is A-431. The series is described as follows: Antiproliferative activity against wild type EGFR expressing human A431 cells assessed as cell viability after 72 hrs by CellTiterGlo analysis. Type of series: functional. The note with it: A-431, 72 h.
Series [8] in a line: Antiproliferative activity against EGFR Del ex19/T790M mutant expressing human HCC827EPR cells assessed as cell viability after 72 hrs by CellTiterGlo analysis. Type of series: functional.
The nature of series [9]: Antiproliferative activity against EGFR Del 19 mutant expressing human HCC827 cells assessed as cell viability after 72 hrs by CellTiterGlo analysis. Type of series: functional. The note with it: HCC827, 72 h.
Series [10] in a line: Antiproliferative activity against EGFR Del ex19 mutant expressing human PC9 cells assessed as cell viability after 72 hrs by CellTiterGlo analysis. Type of series: functional. Particulars: PC-9, 72 h.
Series [11] relates to A-431. Kind of series: Antitumor activity against human A431 cells xenografted in NCR Nu/Nu mouse assessed as tumor growth inhibition at 50 mg/kg, ip administered as bid. Type of series: functional. Particulars: A-431, ip, read-out: TGI.
The next series relates to NCI-H1975. Kind of series: Antiproliferative activity against EGFR L858R / T790M double mutant expressing human NCI-H1975 cells assessed as cell viability after 72 hrs by CellTiterGlo analysis. The note with it: NCI-H1975, 72 h. Type of series: functional.
Series [12] is described as follows: Oral bioavailability in Nu/Nu mouse at 20 mg/ kg. The note with it: in vivo. Type of series: ADME, organism-based.

The results in this text go back to ChEMBL document CHEMBL3785051, “Recent progress on third generation covalent EGFR inhibitors” (Bioorg Med Chem Lett, 2016).

Epidermal growth factor receptor (Homo sapiens, UniProt P00533), sequence (P00533 whole entry): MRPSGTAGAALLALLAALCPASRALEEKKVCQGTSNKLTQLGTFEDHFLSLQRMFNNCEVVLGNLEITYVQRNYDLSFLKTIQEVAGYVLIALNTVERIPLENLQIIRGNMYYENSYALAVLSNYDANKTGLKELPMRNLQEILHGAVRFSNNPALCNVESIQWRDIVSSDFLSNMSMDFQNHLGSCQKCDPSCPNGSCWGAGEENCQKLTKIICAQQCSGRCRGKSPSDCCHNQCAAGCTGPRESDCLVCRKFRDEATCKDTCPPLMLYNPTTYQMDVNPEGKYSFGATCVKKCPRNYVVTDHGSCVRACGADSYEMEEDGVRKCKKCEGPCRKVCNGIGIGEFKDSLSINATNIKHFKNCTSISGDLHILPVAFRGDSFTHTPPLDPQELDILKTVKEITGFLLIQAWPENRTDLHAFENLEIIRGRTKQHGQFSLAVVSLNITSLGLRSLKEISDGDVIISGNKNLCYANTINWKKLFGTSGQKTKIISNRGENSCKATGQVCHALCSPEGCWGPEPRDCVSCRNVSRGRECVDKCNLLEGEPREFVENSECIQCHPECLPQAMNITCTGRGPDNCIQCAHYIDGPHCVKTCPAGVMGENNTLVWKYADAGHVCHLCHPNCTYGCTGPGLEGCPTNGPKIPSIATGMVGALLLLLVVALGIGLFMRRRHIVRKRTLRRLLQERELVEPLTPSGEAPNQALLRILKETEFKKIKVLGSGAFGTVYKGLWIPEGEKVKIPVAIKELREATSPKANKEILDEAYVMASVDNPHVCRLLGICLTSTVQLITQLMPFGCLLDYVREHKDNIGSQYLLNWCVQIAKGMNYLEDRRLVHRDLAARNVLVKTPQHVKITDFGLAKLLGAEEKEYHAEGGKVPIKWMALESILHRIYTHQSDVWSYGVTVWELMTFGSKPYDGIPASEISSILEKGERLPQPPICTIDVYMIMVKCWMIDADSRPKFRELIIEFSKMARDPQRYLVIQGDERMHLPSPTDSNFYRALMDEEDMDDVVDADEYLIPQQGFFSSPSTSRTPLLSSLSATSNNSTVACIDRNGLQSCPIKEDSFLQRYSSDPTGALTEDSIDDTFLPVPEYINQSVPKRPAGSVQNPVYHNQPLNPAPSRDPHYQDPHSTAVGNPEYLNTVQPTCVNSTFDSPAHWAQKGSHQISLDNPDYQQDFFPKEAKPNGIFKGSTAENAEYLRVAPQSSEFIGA
Epidermal growth factor receptor (Homo sapiens, UniProt P00533, EX19DEL), sequence (P00533 whole entry, looked up, stated change not applied): as the sequence (P00533 whole entry) above

With `C=CC(=O)Nc1cc(Nc2nccc(-c3c[nH]c4ccccc34)n2)c(OC)cc1N(C)CCN(C)C`, the IC50 in series [1] is 33 nM; in series [2], 2 nM; in series [3] it was 2 nM.
For the compound `C=CC(=O)Nc1cc(Nc2nccc(-c3cn(C)c4ccccc34)n2)c(OC)cc1N(C)CCNC`, the values for the half-inhibitory concentration (IC50) in series [1], in [2] and in series [3] were 786 nM, 26 nM and 45 nM, respectively.
Consider `C=CC(=O)Nc1cc(Nc2nccc(-c3cn(C)c4ccccc34)n2)c(OC)cc1N(C)CCN(C)C` [OSIMERTINIB], for which the half-life in series [4] is 3 h; in [5], 55 h. In series [6], the CL/F is 237 mL/min.
For `C=CC(=O)Nc1cccc(Nc2nc(Nc3ccc(N4CCN(C(C)=O)CC4)cc3OC)ncc2C(F)(F)F)c1` [ROCILETINIB], the GI50 came out at 547 nM in the series with A-431 [7]; 7 nM in series [8]; 7 nM in series [9]; 7 nM in series [10]; 7 nM with NCI-H1975. Also, in the series with A-431 [11], the inhibition in vivo at 50 mg/kg was found to be 36%. In series [12], the bioavailability came to 65%.
